Assay results from PubChem BioAssay (NCI).
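These data come from cells grown in 96-well plates and exposed to compound for 48 hours at five concentrations. GI50: concentration for 50% inhibition of growth. At the TGI there is no net growth.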

Columns and labels:
Assay in all cases: inhibition of tumour cell growth, NCI panel, 48 h
[1] = test system: SW-620 colon
[2] = test system: OVCAR-8 ovarian
[3] = test system: PC-3 prostate
[4] = test system: SN12C renal
[5] = test system: HS 578T breast
[6] = test system: HT29 colon
[7] = test system: MCF7 breast
[8] = test system: U251 CNS
[9] = test system: OVCAR-3 ovarian
[10] = test system: OVCAR-5 ovarian
[11] = test system: SNB-19 CNS
[12] = test system: HCC-2998 colon
[13] = test system: K-562 leukemia
[14] = test system: HOP-92 NSCLC
[15] = test system: SK-MEL-28 melanoma
[16] = test system: UACC-62 melanoma
[17] = test system: T-47D breast
[18] = test system: A498 renal
[19] = test system: OVCAR-4 ovarian
[20] = test system: UO-31 renal
[21] = test system: DU-145 prostate
[22] = test system: CAKI-1 renal
[23] = test system: BT-549 breast
[24] = test system: NCI-H226 lung
[25] = test system: SK-OV-3 ovarian
[26] = test system: MDA-MB-231 breast
[27] = test system: HCT-116 colon
[28] = test system: IGROV1 ovarian
[29] = test system: SK-MEL-2 melanoma
[30] = test system: SNB-75 CNS
[31] = test system: SF-268 CNS
[32] = test system: ACHN renal
[33] = test system: SR leukemia
[34] = test system: SF-295 CNS
[35] = test system: KM12 colon
[36] = test system: NCI-H522 lung
[37] = test system: RXF 393 renal
[38] = test system: CCRF-CEM leukemia
[39] = test system: RPMI-8226 leukemia
[40] = test system: MOLT-4 leukemia
[41] = test system: HCT-15 colon
[42] = test system: MALME-3M melanoma
[43] = test system: NCI-H23 lung
[44] = test system: COLO 205 colon
[45] = test system: 786-0 renal
[46] = test system: SF-539 CNS
[47] = test system: A549 NSCLC
[48] = test system: MDA-MB-435
[49] = test system: TK-10 renal
[50] = test system: NCI/ADR-RES ovarian
[51] = test system: HL-60(TB) leukemia
[52] = test system: EKVX NSCLC
[53] = test system: UACC-257 melanoma
[54] = test system: NCI-H460 lung
[55] = test system: HOP-62 NSCLC
[56] = test system: M14 melanoma
[57] = test system: LOX IMVI melanoma
[58] = test system: SK-MEL-5 melanoma

CN1CCN(Cc2ccc(NC(=O)c3cncc(C#Cc4cnc5ccc(O[C@H]6CCOC6)nn45)c3)cc2C(F)(F)F)CC1
GI50 [1]: 177 nM | TGI [1]: 871 nM | GI50 [2]: 675 nM | TGI [2]: 1540 nM | GI50 [3]: 720 nM | TGI [3]: 2280 nM | GI50 [4]: 307 nM | TGI [4]: 1060 nM | GI50 [5]: 555 nM | TGI [5]: 1590 nM | GI50 [6]: 194 nM | TGI [6]: 826 nM | GI50 [7]: 149 nM | TGI [7]: 752 nM | GI50 [8]: 575 nM | TGI [8]: 1280 nM | GI50 [9]: 591 nM | TGI [9]: 1290 nM | GI50 [10]: 381 nM | TGI [10]: 1210 nM | GI50 [11]: 1210 nM | TGI [11]: 3240 nM | GI50 [12]: 341 nM | TGI [12]: 964 nM | GI50 [13]: 5 nM | TGI [13]: 544 nM | GI50 [14]: 55.1 nM | TGI [14]: 275 nM | GI50 [15]: 410 nM | TGI [15]: 1110 nM | GI50 [16]: 488 nM | TGI [16]: 1160 nM | GI50 [17]: 934 nM | TGI [17]: 2210 nM | GI50 [18]: 871 nM | TGI [18]: 1590 nM | GI50 [19]: 490 nM | TGI [19]: 1340 nM | GI50 [20]: 270 nM | TGI [20]: 853 nM | GI50 [21]: 521 nM | TGI [21]: 1180 nM | GI50 [22]: 226 nM | TGI [22]: 744 nM | GI50 [23]: 375 nM | TGI [23]: 783 nM | GI50 [24]: 123 nM | TGI [24]: 1040 nM | GI50 [25]: 848 nM | TGI [25]: 1760 nM | GI50 [26]: 174 nM | TGI [26]: 850 nM | GI50 [27]: 45.6 nM | TGI [27]: 212 nM | GI50 [28]: 177 nM | TGI [28]: 818 nM | GI50 [29]: 431 nM | TGI [29]: 1120 nM | GI50 [30]: 295 nM | TGI [30]: 795 nM | GI50 [31]: 593 nM | TGI [31]: 1420 nM | GI50 [32]: 396 nM | TGI [32]: 1040 nM | GI50 [33]: 284 nM | TGI [33]: 1440 nM | GI50 [34]: 748 nM | TGI [34]: 1510 nM | GI50 [35]: 5 nM | TGI [35]: 725 nM | GI50 [36]: 562 nM | TGI [36]: 1320 nM | GI50 [37]: 681 nM | TGI [37]: 1440 nM | GI50 [38]: 305 nM | TGI [38]: 4760 nM | GI50 [39]: 815 nM | TGI [39]: 2740 nM | GI50 [40]: 289 nM | TGI [40]: 2720 nM | GI50 [41]: 385 nM | TGI [41]: 1400 nM | GI50 [42]: 97.6 nM | TGI [42]: 438 nM | GI50 [43]: 245 nM | TGI [43]: 1000 nM | GI50 [44]: 227 nM | TGI [44]: 828 nM | GI50 [45]: 187 nM | TGI [45]: 397 nM | GI50 [46]: 171 nM | TGI [46]: 771 nM | GI50 [47]: 475 nM | TGI [47]: 1450 nM | GI50 [48]: 159 nM | TGI [48]: 705 nM | GI50 [49]: 484 nM | TGI [49]: 1130 nM | GI50 [50]: 1120 nM | TGI [50]: 3100 nM | GI50 [51]: 194 nM | TGI [51]: 692 nM | GI50 [52]: 623 nM | TGI [52]: 1350 nM | GI50 [53]: 653 nM | TGI [53]: 1380 nM | GI50 [54]: 341 nM | TGI [54]: 962 nM | GI50 [55]: 505 nM | TGI [55]: 1280 nM | GI50 [56]: 97.5 nM | TGI [56]: 280 nM | GI50 [57]: 186 nM | TGI [57]: 743 nM | GI50 [58]: 716 nM | TGI [58]: 1400 nM

CC1=C(CCC=NNC(N)=O)C2=C(C)C3(CC3)[C@@](C)(O)C(=O)C2=C1
GI50 [1]: 5790 nM | TGI [1]: 19600 nM | GI50 [2]: 238 nM | TGI [2]: 926 nM | GI50 [3]: 528 nM | TGI [3]: 5240 nM | GI50 [4]: 369 nM | TGI [4]: 2500 nM | GI50 [5]: 1860 nM | TGI [5]: 6280 nM | GI50 [6]: 351 nM | TGI [6]: 1900 nM | GI50 [7]: 426 nM | TGI [7]: 12100 nM | GI50 [8]: 440 nM | TGI [8]: 4190 nM | GI50 [9]: 415 nM | TGI [9]: 3250 nM | GI50 [10]: 325 nM | TGI [10]: 1420 nM | GI50 [11]: 717 nM | TGI [11]: 7860 nM | GI50 [12]: 350 nM | TGI [12]: 1150 nM | GI50 [13]: 3430 nM | TGI [13]: 17800 nM | GI50 [14]: 238 nM | TGI [14]: 702 nM | GI50 [15]: 700 nM | TGI [15]: 2150 nM | GI50 [16]: 488 nM | TGI [16]: 1310 nM | GI50 [17]: 245 nM | TGI [17]: 1480 nM | GI50 [18]: 317 nM | TGI [18]: 902 nM | GI50 [19]: 439 nM | TGI [19]: 1700 nM | GI50 [20]: 160 nM | TGI [20]: 373 nM | GI50 [21]: 120 nM | TGI [21]: 5030 nM | GI50 [22]: 281 nM | TGI [22]: 2800 nM | GI50 [23]: 226 nM | TGI [23]: 695 nM | GI50 [24]: 421 nM | TGI [24]: 3810 nM | GI50 [25]: 246 nM | TGI [25]: 666 nM | GI50 [26]: 412 nM | TGI [26]: 2000 nM | GI50 [27]: 272 nM | TGI [27]: 2480 nM | GI50 [28]: 248 nM | TGI [28]: 1270 nM | GI50 [29]: 520 nM | TGI [29]: 1030 nM | GI50 [30]: 253 nM | TGI [30]: 748 nM | GI50 [31]: 318 nM | TGI [31]: 4570 nM | GI50 [32]: 250 nM | TGI [32]: 695 nM | GI50 [33]: 2580 nM | TGI [33]: 61800 nM | GI50 [34]: 289 nM | TGI [34]: 1150 nM | GI50 [35]: 1640 nM | TGI [35]: 5380 nM | GI50 [36]: 515 nM | TGI [36]: 1960 nM | GI50 [37]: 145 nM | TGI [37]: 306 nM | GI50 [38]: 3930 nM | TGI [38]: 26200 nM | GI50 [39]: 5580 nM | TGI [39]: 32600 nM | GI50 [40]: 2790 nM | TGI [40]: 20900 nM | GI50 [41]: 281 nM | TGI [41]: 1320 nM | GI50 [42]: 316 nM | TGI [42]: 913 nM | GI50 [43]: 174 nM | TGI [43]: 743 nM | GI50 [44]: 230 nM | TGI [44]: 647 nM | GI50 [45]: 232 nM | TGI [45]: 623 nM | GI50 [46]: 225 nM | TGI [46]: 614 nM | GI50 [47]: 281 nM | TGI [47]: 1350 nM | GI50 [48]: 1320 nM | TGI [48]: 3250 nM | GI50 [49]: 318 nM | TGI [49]: 1610 nM | GI50 [50]: 420 nM | TGI [50]: 4580 nM | GI50 [51]: 274 nM | TGI [51]: 1770 nM | GI50 [52]: 1440 nM | TGI [52]: 6160 nM | GI50 [53]: 538 nM | TGI [53]: 2130 nM | GI50 [54]: 159 nM | TGI [54]: 3740 nM | GI50 [55]: 234 nM | TGI [55]: 753 nM | GI50 [56]: 196 nM | TGI [56]: 449 nM | GI50 [57]: 457 nM | TGI [57]: 2110 nM | GI50 [58]: 231 nM | TGI [58]: 617 nM
